Experimental data reported in patent publication US6790650B2, “Cacao endoproteinases and production of cocoa flavor from same” (Nestec S.A., priority 2000, dated 2004).
Square brackets hold non-standard residues; d marks the D form. Peptide text beside a SMILES is read from it. * marks the point of attachment. Sta = CC(C)C[C@H](N)[C@@H](O)CC(=O)O; Isovaleryl = CC(C)CC(=O)*

Legend:
[1] = test system: native aspartic endoproteinase (TcAP2), size exclusion purified pool #57-64; experiment: Inhibitor sensitivity of the native purified aspartic endoproteinase (bovine hemoglobin hydrolysis, OPA read-out); format: biochemical, Theobroma cacao; details: for Remaining Activity %: pH 3, 10 mg/ml bovine hemoglobin, pepstatin A 0.002 mM, 1,10 phenanthroline 2.0 mM, E-64 0.01 mM, DCI 0.1 mM, two replicates
Protocol: (§1) Aspartic endoproteinase activity was assayed at 42° C. in a 900 μl reaction medium containing 0.2M sodium citrate buffer pH3.0, 10 mg/ml bovine haemoglobin and 150 μl yeast culture supernatant. To stop the reaction aliquots (80 μl) were added to an equal volume of TCA 8% and the precipitated protein removed by centrifugation at 13000 g. 20 μl supernatant were mixed to 250 μl O-phthaldialdehyde (OPA) reagent (50 mM sodium tetraborate, 1% SDS, 5.96 mM OPA (dissolved in 1 ml methanol) and 1.43 mM β-mercaptoethanol. Activity was then determined measuring OD at 340 nm and expressed in pmole leucine produced per mg protein. For this, we use the following linear equation (OD340 nm=0.0156 pmoles+0.0088), which was determined using a standard curve with L-leucine (0 to 80 pmoles). Protein concentration was determined by Bradford assay (Biorad).
The inhibitor sensitivity of the native aspartic endoproteinase was determined in 300 μl reactions containing 200 mM sodium citrate, pH 3, 10 mg/ml bovine hemoglobin, and 5 μl of size exclusion purified pool #57-64 (2.4 μg protein/μl). The inhibitors were added to give a final concentration of 2 μM pepstatin, 2 mM 1,10 phenanthroline, 100 μM dichloroisocoumarin (DCI), 10 μM E-64. The enzyme activity was determined as described in example 5.

recombinant TcAP2 = experiment: Effect of inhibitors on hydrolysis of bovine haemoglobin by recombinant TcAP2; format: biochemical, Theobroma cacao; details: 2 μM pepstatin; for Effect on endoprotease activity of recombinant TcAP2: pH 3, 2 mM 1.10 phenanthroline, 100 μM DCI, 10 μM E64
Protocol: Inhibitors were added in the reaction at final concentration of 2 mM for 1.10 phenanthroline, 100 μM DCI, 10 μM E64 and 2 μM pepstatin. Activity at pH 3 without inhibitor was taken as 100% and correspond to 28.8±3.8 pmoles L-leucine produced/min/mg protein. Data are means of 3 measurements±SD;
as §1
The pepstatin insensitive activity (1.91±1.26 pmoles L-leucine/min/mg protein, 6.65%) is in the same range as that one measured for the control strain (2.26±1.26 pmoles L-leucine/min/mg protein, 7.8%). Other inhibitors such as 1.10 phenanthroline (metallo proteases), DCI (serine proteases) and E64 (cysteine proteases) have no effect on TcAP2 activity (FIG. 12).

[2] = test system: aspartic endoproteinase activity; details: activity optimal at pH 3.5; cited from earlier work
[3] = test system: carboxypeptidase activity; details: cited from earlier work
bovine haemoglobin = experiment: Aspartic endoproteinase activity of recombinant TcAP2 in yeast culture supernatant; format: biochemical
Protocol: Small patches of cells were streaked on YPD agar plates and grown overnight at 28° C. The thin layers of grown cells were used to inoculate 50 ml DMI medium in 500 ml Erlenmeyers with 4 lateral baffles. DMI medium contains per liter: KH2PO4, 10 g; MgSO4,7H2O, 2.5 g; glucose, 20 g; Trace elements solution, 5.1 ml; Vitamins solution, 17 ml; urea, 3 g. Urea was dissolved in 15 ml water and sterile filtered. The initial pH of the medium was adjusted to 5.0. The cultures were shaken at 140 rpm on a rotary shaker at 28° C. for three days. Aliquots of the cultures were centrifuged at maximum speed (3000 g) for 15 min. and the supernatant used for the determination of the aspartic endoproteinase activity.
as §1

c1cnc2c(c1)ccc1cccnc12 [1,10 Phenanthroline, 1,10 phenanthroline]
Remaining Activity % [1]: 86% | Effect on endoprotease activity of recombinant TcAP2 (recombinant TcAP2): no effect

CC(C)CC(=O)N[C@H](C(=O)N[C@H](C(=O)N[C@@H](CC(C)C)[C@@H](O)CC(=O)N[C@@H](C)C(=O)N[C@@H](CC(C)C)[C@@H](O)CC(=O)O)C(C)C)C(C)C [Pepstatin A] (Isovaleryl-VV[Sta]A[Sta]-OH)
Inhibition of the purified native protease activity ([1]; 2 μM pepstatin, pH 3): inhibits completely | Remaining Activity % [1]: 0% | Inhibition of aspartic endoproteinase activity [2]: inhibited | Pepstatin insensitive activity (recombinant TcAP2; medium of pCY330-33, pH 3): 1.91±1.26 pmoles L-leucine/min/mg protein | Pepstatin insensitive activity, % of activity without inhibitor (recombinant TcAP2; activity at pH 3 without inhibitor taken as 100%): 6.65% | Effect on endoprotease activity of recombinant TcAP2 (recombinant TcAP2): completely inhibited

CC(C)C[C@H](NC(=O)[C@H]1O[C@@H]1C(=O)O)C(=O)NCCCCN=C(N)N [E-64]
Remaining Activity % [1]: 88% | Effect on endoprotease activity of recombinant TcAP2 (recombinant TcAP2): no effect

O=S(=O)(F)Cc1ccccc1 [PMSF]
Inhibition of carboxypeptidase activity [3]: inhibited

O=c1oc(Cl)c(Cl)c2ccccc12 [DCI, dichloroisocoumarin]
Remaining Activity % [1]: 90% | Effect on endoprotease activity of recombinant TcAP2 (recombinant TcAP2): no effect

B1: TcAP2: aspartic endoproteinase from Theobroma cacao bean (clone CCN51), 514 amino acids; recombinant form secreted by Yarrowia lipolytica clone pCY330-33 (protein)
chain: MGTTIKVVVLSLFISSLLFSVVSSVSNDGLVRIGLKKMKLDPNNRLAARLDSKDGEALRAFIKKYRFRNNLGDSEETDIVALKNYMDAQYYGEIGIGTPTQKFTVIFDTGSSNLWVSSTKCYFSVACYFHEKYKASDSSTYKKDGKPASIQYGTGAISGFFSYDHVQVGDLVVKDQEFIEATKEPGLTFMVAKFDGILGLGFKEISVGDAVPVWYNMIKQGLIKEPVFSFWLNRNVDEEAGGEIVFGGVDPNHYKGKHTYVPVTQKGYWQFDMGDVLIADKPTGYCAGSCAAIADSGTSLLAGPSTVITMINHAIGATGVVSQECKAVVQQYGRTIIDLLIAEAQPQKICSQIGLCTFNGAHGVSTGIESVVDESNGKSSGVLRDAMCPACEMAVVWMQNQVRQNQTQDRILSYVNELCDRVPNPMGESAVDCGSLSSMPTISFTIGGKVFDLTPEEYILKVGEGSEAQCISGFTALDIPPPRGPLWILGDIFMGRYHTVFDFGKLRVGFAEAA
Activity at pH 3 without inhibitor (taken as 100%) (bovine haemoglobin; FIG. 12, means of 3 measurements±SD): 28.8±3.8 pmoles L-leucine produced/min/mg protein | Hydrolysis of bovine haemoglobin by supernatant from pCY330-33 (bovine haemoglobin; pH 3.0, 42° C., means of 3 measurements±SD (FIG. 10)): 25.8±1.45 pmoles L-leucine/min/mg protein | Activity at pH higher than 5 (bovine haemoglobin; pH higher than 5): slight activity
